Measurements as given in article PMC10927086, “Effects of structurally distinct human HDAC6 and HDAC6/HDAC8 inhibitors against S. mansoni larval and adult worm stages” (PLOS Neglected Tropical Diseases, 2024).

Legend:
[1] = test system: S. mansoni eggs laid by worm pairs; assay: Egg counts and egg maturation staging (Vogel and Prata) in vitro; type: cell-based, Schistosoma mansoni; conditions: exp4
Description: The eggs produced by worm pairs in vitro were counted at day 3 upon treatment using an inverted Leica DM IL microscope (Leica Microsystems, Wetzlar, Germany). Images were captured with a BX41 Olympus (Olympus, Tokyo, Japan) microscope and a brightfield objective 10× served by an Olympus DP23 microscope digital camera and visualized using “CellSens Entry” software (version 3.1.1). Egg maturation morphological score was assigned based on the Vogel and Prata’s staging system of egg maturation previously reported.
Therefore at 72 h upon worm pairs treatment the eggs were counted and classified by microscopic observation according to the Vogel and Prata staging system of egg maturation and grouped as immature (stages I and II), intermediate/developed (stages III–V), viable or damaged eggs.
Panel B. Histograms represent the percentages of eggs at different maturation stages +/- SEM counted at 72 h after treatment; 5–6 microscopy images of at least 3 independent experiments were analyzed. Filled red triangles indicate viable eggs at stages I–II (immature); empty red triangles indicate damaged/morphological abnormal eggs at stages I–II (immature); filled red arrows indicate viable eggs at stages III–V (intermediate/developed); empty red arrows indicate damaged/morphological abnormal eggs at stages III-V; ef, egg fragments; sp, sperm cells; oc, oocyte. Scale Bars = 200 μm.

[2] = MTT cytotoxicity assay on L929 fibroblasts; type: cell-based, murine; conditions: mouse, compounds 100-0.78 μM, GA 10-0.078 μM, 2 independent experiments
Experimental: (§1) The NCTC clone 929 (L-929) murine fibroblast isolated from subcutaneous connective tissue (ATCC-CCL-1) were cultured in Dulbecco’s Modified Eagle Medium (DMEM) supplemented with 10 mM Hepes (pH 6.98–7.30), 1 mM l-glutamine, 100 U/ml of penicillin/streptomycin (BioWhittaker, Lonza, EuroClone SpA), and heat-inactivated 10% FBS. All cells were cultured at 37°C in a 5% CO2 humidified incubator.
(§2) The MTT method was employed as previously described to determine the viability of fibroblast cell lines. Briefly, cells seeded into 96-well plates at a density of 20,000 cells/well after overnight incubation, were exposed to selected compounds at the indicated concentrations for 24–72 h. Next they were gently washed, incubated with MTT (bromuro di 3-(4,5-dimetiltiazol-2-il)-2,5-diphenyltetrazolium) for 4 h, and processed for color detection with DMSO. The resulting purple solution was spectrophotometrically measured at 570 nm using a Varioskan Lux instrument and Skanit software (Thermo Fisher Scientific).
(§3) The optical density values for both assays were expressed as a percentage of cell survival and normalized with the value of cells treated with vehicle (DMSO), and the data were analyzed using GraphPad Prism v9.5.1 software (San Diego, CA, USA).
(§4) The cytotoxicity of the hit compounds was assessed in two independent experiments on murine L929 and human BJ fibroblasts at 24 h by MTT assays. Vehicle (DMSO) and Gambogic acid (GA) were used as negative and positive control respectively. The compounds show a safe profile on both cell lines (S2 Table).
(§5) The IC50(μM) shown was calculated by dose-response curves of the compounds on murine L929 and human BJ fibroblast cells. […] The data are representative of 2 independent experiments. Gambogic acid (GA) and vehicle (DMSO) were used as positive and negative controls respectively. (DOCX)

[3] = MTT cytotoxicity assay on BJ fibroblasts; type: cell-based; conditions: human, compounds 100-0.78 μM, GA 10-0.078 μM, 2 independent experiments
Experimental: as §1, §2, §3, §4, §5

Row | SMILES | % Stage I/II damaged [1] [%] | % Stage I/II viable [1] [%] | %Stage II/IV/V viable [1] [%] | %Stage III/IV/V damaged [1] [%] | Stage I/II damaged counts [1] | Stage I/II viable (egg counts) [1] | Stage II/IV/V viable (egg counts) [1] | Stage III/IV/V damaged (egg counts) [1] | egg counts [1] | IC50 at 24 h [2] [nM] | IC50 at 24 h [3] [nM]
1 | CC(/C=C/C(=O)NO)=C\[C@@H](C)C(=O)c1ccc(N(C)C)cc1 [TSA, Trichostatin A, reference compound] | 100.0 | 0.0 | 0.0 | 0.0 | 1431 | 0 | 0 | 0 | 1431 | – | –
2 | CC(C)=CCC[C@]1(C)C=Cc2c(O)c3c(c(CC=C(C)C)c2O1)O[C@]12C(=C[C@@H]4C[C@H]1C(C)(C)O[C@@]2(C/C=C(/C)C(=O)O)C4=O)C3=O [GA, Gambogic acid, reference compound] | – | – | – | – | – | – | – | – | – | 500 | 350
